The structures appear in SMILES notation.

On to `CCCc1nc2c(N)nc3cc(OCCCNC(=O)C(C)C)ccc3c2n1CC(C)C`, for which the melting point was in the range of 179 to 181 °C.
The same measure for `C[C@H](c1ccncn1)[C@@](O)(CO)c1ccc(F)cc1F`: 148 to 150 °C.
The compound `CC(C)(C)c1ccc(CN(CCOc2cccc(N)c2N)C(=O)C(F)(F)F)cc1` had a melting point of 72 to 74 °C.
The same measure for `COC(=O)c1ccc2c(nc(C)n2Cc2ccccc2)c1C1=NC(C)(C(C)C)C(=O)N1` (centres undefined): 194 to 196 °C; for `Fc1ccc(N2CCN(CCCc3cnc4n3CCCC4)CC2)cc1`: 106 to 108 °C.
Compound `COc1cc(CN(C(N)=S)[C@@H](COC(=O)C(C)(C)C)Cc2ccccc2)ccc1OCCN` yielded a melting point of 49 °C.
The same measure for `CN(Cc1cccc2c1CN(C1CCC(=O)NC1=O)C2=O)C(=O)Nc1cccc(C(F)(F)F)c1` (centres undefined): 198 to 200 °C; for `Nc1nc2ccc(Oc3ccc4c(c3)OCO4)cc2s1`: 154 to 157 °C; for `COC(=O)C(Cc1ccccc1)Oc1ccc2cc(-c3ccc(-c4ccccc4)[nH]3)ccc2c1` (centres undefined): 140 to 141 °C.
The same measure for `CN(c1cccc2cc(-c3ncc(CCC(=O)NN)s3)[nH]c12)S(=O)(=O)c1cccs1`: 224 to 226 °C; for `Cc1ccc(Cl)c(Nc2ccccc2-c2nnc(NC#N)o2)c1Cl`: above 215 °C.
The same measure for `O=C(CCCO)Nc1cccc(/C=C/c2nc3ccccc3s2)c1`: 191 to 192 °C.
Compound `CNS(=O)(=O)c1cc(C(=O)NNC(=O)c2occ(-c3ccccc3)c2-c2ccccc2)ccc1OC` returned a melting point of 239 to 241 °C.
The same measure for `CCCSc1nc(N)c2ncn(C3C=CCCC3)c2n1` (centres undefined): 108 to 113 °C.
The same measure for `O=C(c1cc2c(cc1F)OC(c1ccccc1Cl)(c1ccccc1Cl)O2)N1CCOCC1`: 98 °C; for `COC1OCC[C@@H]1NC(=O)[C@H](CC(C)C)NC(=O)Nc1cccc2ccccc12` (some centres undefined): 184 to 185 °C.
The same measure for `Clc1ccc(CSCc2ccc(Cl)c(Cl)c2)cc1Cl`: 98 to 99 °C; for `COC(=O)c1cc(-c2ccccc2)c(=O)n2c1-c1sccc1S(=O)C2` (centres undefined): 183 to 186 °C.
The compound `CNC(=O)[C@@H]1C[C@H](SCc2ccc(OC)cc2)CN1C` displayed a melting point of 82 to 84 °C.
For the compound `CCOc1cccc(NC(=O)Nc2ccc3c(c2)CCN(C(=O)Nc2ccc(OCCO)cc2Cl)C3)c1`, the melting point is 148 to 150 °C.
The same measure for `CC1(C)CCCC(=Cc2ccc(Cl)cc2)C1(O)Cn1cncn1` (centres undefined): 179 °C; for `CN1CCN(c2ccc(/C=C/C(=O)CC(=O)/C=C/c3ccc4cc[nH]c4c3)cc2)CC1`: 65 to 77 °C; for `O=C(O)c1ncn2c(C(F)(F)F)cc(-c3ccc(C(F)(F)F)cc3)nc12`: 231 °C.
In turn, `COC(=O)c1ccccc1S(=O)(=O)NC(=O)Nc1nc(OC)n(C)n1` returned a melting point of 177 to 180 °C.
Regarding `Nc1ccc(SCC2CC2)cc1[N+](=O)[O-]`, the melting point fell in the range of 45 to 47 °C.
Turning to `CC1N=C(c2ccccc2Cl)c2cc([N+](=O)[O-])ccc2N(C)C1=O` (single isomer, unassigned; (+)), the melting point was 156 to 158 °C.
The same measure for `CC1(C)CC(=O)c2cc(SCc3ccccc3)[nH]c2C1`: 148 to 150 °C; for `CN(C)c1ccc2c(c1)CC(N1CCN(CCN3CCOC3=O)CC1)c1ccccc1S2` (centres undefined): 168 to 170 °C; for `CNC(=O)C1OC1C(=O)c1ccc(Cl)cc1` (centres undefined): 160 to 161 °C.
The same measure for `CCC(CC)Nc1cc(COC(C)=O)c([N+](=O)[O-])cc1[N+](=O)[O-]`: 46 to 52 °C; for `COc1c(C)c(N2CCN(c3ccc4c(c3)OC(F)(F)O4)CC2)c(C)c2c1OC(C)(C)C2`: 149 to 151 °C; for `CN1C(=O)C(=C2CCN(Cc3ccccc3)CC2)c2ccccc21`: 101 to 102 °C.
The same measure for `Nc1ccc(-c2ncnn2-c2ccc(F)cc2)cc1`: 128 to 130 °C; for `COc1cc(S(=O)(=O)c2ccncc2)ccc1N`: 163 to 165 °C.
Compound `COCc1cccc(Cl)c1NC(=O)CC1c2ccccc2Oc2ccccc21` showed a melting point of 184 to 185 °C.
In turn, `Cn1cc(S(C)=O)c(=O)c2ccsc21` (centres undefined) gave a melting point of 150 to 152 °C.
The same measure for `CNS(=O)(=O)c1cc2c(c(C(=O)O)c1)OCCO2`: 208 to 209 °C; for `CCCOc1ccccc1-c1nc2nc(OC)nnc2c(=O)[nH]1`: 234 to 235 °C.
The same measure for `CCOC(=O)/C=C/C=C/c1ccc(OC(C)C)cc1`: 64 to 65 °C; for `Cc1ccc2nc(C(=O)Nc3ccccn3)[nH]c2c1`: 230 °C.
As to `CCC(Cn1nc(-c2ccccc2)c(-c2ccccc2)c(C#N)c1=O)[N+](=O)[O-]` (centres undefined), the melting point was 154 to 155 °C.
The same measure for `CCc1ccc2c(=O)c(CSC)cn(C)c2c1`: 104 to 106 °C.
The same measure for `CNc1nccc(-c2cc(NCCCNc3ncnc4[nH]nc(Br)c34)c3cc(OC)ccc3c2)n1`: 145 to 148 °C; for `CCN1CCC(c2c[nH]c3ccc(NC(=N)c4cccs4)cc23)CC1`: 150 to 152 °C; for `O=C1C=CC(O)(c2ccccn2)C=C1`: 116 to 117 °C.
The same measure for `O=C(NOc1ccc([N+](=O)[O-])cc1)OCCCNC(=O)OC1CCN(C(=O)Oc2ccc(Oc3ccccc3)cc2)CC1`: 97 to 100 °C; for `CCCCCCCCCCCCCCCCn1c2cc(Cl)ccc2c2ccc(Cl)cc21`: 82 to 83 °C; for `CC(O)c1ccc(-c2ccc3c(c2)CC(C(=O)O)O3)cc1` (centres undefined): 155 to 157 °C.
The compound `CCSC(C)C(=O)N(CC)c1cn(-c2cccnc2)nc1Cl` (centres undefined) came in with a melting point of 65 to 66 °C.
The same measure for `CC(C)(C)OC(=O)NCCc1ccc(CC(=O)O)cc1`: 94 to 95 °C; for `CC(C)(C)OC(=O)c1nc(-c2ccccc2)[nH]c1-c1cccnc1`: 196 to 197 °C.
Take `CC(C)(C)OC(=O)N1CCCC(c2ncc(-c3cnc(-c4ccccc4)nc3)[nH]2)C1` (centres undefined): the melting point came out at 130 °C.
The same measure for `CSc1ccc([C@@H](CC2CCCC2)C(=O)O)cc1Cl`: 117 to 119 °C; for `CCCCC(=N)NC(=O)Nc1ccccc1`: 156 °C.
The same measure for `COc1nc2cccc(C=O)c2nc1OC`: 137 to 140 °C.
With `O=C(c1ccccc1)c1ccc(N2CCC(N3Cc4ccccc4C3=O)CC2)cc1`, the melting point lay in the range of 173 to 175 °C.
The same measure for `CN1CC=C(c2c[nH]c3ccc(N)cc23)C(F)C1` (centres undefined): 176 to 178 °C; for `Cc1cc(C)c(C(CO)c2ccc(Br)cc2)c(O)c1C` (centres undefined): 114 to 115 °C; for `O=C(Cc1ccc(Cl)c(Cl)c1)N1CCN2CCCC[C@@H]21`: 102 to 104 °C.
The compound `Ic1nc(-c2ccccn2)[nH]c1I` gave a melting point of 177 to 179 °C.
The same measure for `COc1ccc(C2Cc3[nH]c4ccccc4c3C2)cc1` (centres undefined): 106 to 109 °C; for `CC12CC3CC(C1)CC(CC(O)C(c1cccc(Cl)c1)n1ccnc1)(C3)C2` (centres undefined): 126 °C; for `O=C1CN=C(c2ccc(O)cc2)c2cc(Cl)ccc2N1`: 271 to 272 °C.
Take `Cc1ccc(S(=O)(=O)Oc2ccc(C(C)(C)C)cc2C(C)(C)C)cc1`: the melting point came to 81 °C.

In general, melting point refers to the temperature, or range, at which the solid turns liquid.
